# Molecular target: Receptor-type tyrosine-protein kinase FLT3 (Homo sapiens, UniProt P36888, D835Y)
# Test: Inhibition of recombinant human FLT3 D835Y mutant (564 to end residues) using EAIYAAPFAKKK as substrate at 40 mins in presence of [gamma-33ATP] by scintillation counting based radiometry assay
compound,measurement,value
Cc1cnc(Nc2ccc3c(c2)CCN(C(=O)/C=C/CN(C)C)C3)nc1-c1cnn(C(C)C)c1,IC50,62 nM

# Reference: ChEMBL document CHEMBL4715869, “N-(Pyrimidin-2-yl)-1,2,3,4-tetrahydroisoquinolin-6-amine Derivatives as Selective Janus Kinase 2 Inhibitors for the Treatment of Myeloproliferative Neoplasms” (J Med Chem, 2020)
